Assay [1] concerns 4T1 tumor. Briefly: Tumor-associated dendritic cells in mouse 4T1 tumor model (FACS). The following applies: intratumoral 100 μL of 1 mM compound 1.
Procedure: Seven- to nine-week-old female Balb/c mice (Jackson Laboratories) were inoculated with 1×10^6 4 T1-luciferase tumor cells suspended in 50 μL of PBS into the mammary fat pad. […] Anaesthetized animals were shielded with a 3.2 mm lead shield with a 15×20 mm aperture where the tumor was placed. […] On the next day, the tumor was extracted and incubated in RPMI+ 10% FBS with 20 μg/mL DNase I type IV (Sigma-Aldrich) and 1 mg/mL Collagenase from Clostridium histolyticum (Sigma-Aldrich) at 37° C. for 30 min. […] Cells were stained with Live/Dead fixable near-IR dead cell staining kit (Thermo Fisher Scientific), Fc-blocked for 10 min using TruStain fcX and subsequently antibody-stained with CD11c, CD45, and I-A/I-E (all Biolegend). Cells were analyzed using an SH800S cell sorter (Sony) or an LSR II (BD Biosciences).
Mean±SEM (n=2). **P=0.004 (Student's t test).
The target in assay [2] is T1, purified recombinant mouse ENPP1 (Mus musculus, UniProt P06802).
T1 sequence (P06802 1-906): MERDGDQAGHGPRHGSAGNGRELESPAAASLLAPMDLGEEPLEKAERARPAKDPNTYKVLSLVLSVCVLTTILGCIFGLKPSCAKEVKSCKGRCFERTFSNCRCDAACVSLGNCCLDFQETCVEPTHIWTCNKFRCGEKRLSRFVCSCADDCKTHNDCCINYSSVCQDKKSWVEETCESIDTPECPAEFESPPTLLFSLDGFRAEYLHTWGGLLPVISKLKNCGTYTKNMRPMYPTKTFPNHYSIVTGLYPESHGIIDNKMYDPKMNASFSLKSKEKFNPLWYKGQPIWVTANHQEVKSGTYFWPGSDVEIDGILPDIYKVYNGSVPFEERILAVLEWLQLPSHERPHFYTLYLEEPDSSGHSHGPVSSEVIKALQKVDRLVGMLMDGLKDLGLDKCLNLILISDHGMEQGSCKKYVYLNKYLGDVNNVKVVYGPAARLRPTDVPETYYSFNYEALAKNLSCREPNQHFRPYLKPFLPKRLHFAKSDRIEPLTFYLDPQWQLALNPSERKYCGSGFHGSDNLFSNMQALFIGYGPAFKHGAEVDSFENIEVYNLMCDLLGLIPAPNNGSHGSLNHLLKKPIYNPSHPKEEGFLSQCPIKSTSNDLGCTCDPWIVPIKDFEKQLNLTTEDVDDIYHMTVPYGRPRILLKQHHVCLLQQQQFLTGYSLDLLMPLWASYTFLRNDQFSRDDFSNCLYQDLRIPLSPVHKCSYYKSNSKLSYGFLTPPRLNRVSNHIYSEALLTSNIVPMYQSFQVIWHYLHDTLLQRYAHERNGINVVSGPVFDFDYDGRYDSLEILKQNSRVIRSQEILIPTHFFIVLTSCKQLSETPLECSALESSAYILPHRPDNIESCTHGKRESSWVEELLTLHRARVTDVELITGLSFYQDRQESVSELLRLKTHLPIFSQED
Briefly: ENPP1 activity assay using TMP-pNP as a substrate. It counts as biochemical. To be noted: TMP-pNP 2 μM, mouse ENPP1 0.5 nM, pH 7.5, room temperature. The procedure:
Selected compounds of Table 1, Table 2 and other derivatives were prepared and assessed in an ENPP1 activity assay using thymidine monophosphate paranitrophenol (TMP-pNP) as a substrate. Enzyme reactions were prepared with TMP-pNP (2 μM), 5-fold dilutions of ENPP1 inhibitor, and purified recombinant mouse ENPP1 (0.5 nM) in 100 mM Tris, 150 mM NaCl, 2 mM CaCl2, 200 μM ZnCl2, pH 7.5 at room temperature. Reaction progress was monitored by measuring absorbance at 400 nm of paranitrophenolate produced by the reaction for 20 minutes.

In assay [3] the target is T1, purified recombinant mouse ENPP1. The assay can be described thus: ENPP1 enzyme activity assay using 32P cGAMP as a substrate (TLC). Format: biochemical. The procedure: Compounds were also assessed in an ENPP1 enzyme activity assay using ^32P cGAMP as a substrate. Radiolabeled ^32P cGAMP was synthesized by incubating unlabeled ATP (1 mM) and GTP (1 mM) doped with ^32P-ATP with 2 μM purified recombinant porcine cGAS in 20 mM Tris pH 7.5, 2 mM MgCl2, 100 μg/mL herring testes DNA) overnight at room temperature, and the remaining nucleotide starting materials were degraded with alkaline phosphatase for 4 h at 37° C. The probe ^32P-cGAMP (5 μM) was incubated with purified recombinant mouse ENPP1 (20 nM) or whole cell lysates in 100 mM Tris, 150 mM NaCl, 2 mM CaCl2, 200 μM ZnCl2, pH 7.5 at room temperature for 5 hours. To generate enzyme inhibition curves, 5-fold dilutions of ENPP1 inhibitor were included in the reaction. […] Plates were exposed on a phosphor screen (Molecular Dynamics) and imaged on a Typhoon 9400 and the ^32P signal was quantified using ImageJ.

The subject of assay [4] is 4T1 tumor. The assay can be described thus: 4T1 tumor model: IR with compound 1, cGAMP and/or anti-CTLA-4, tumor volume and survival. It counts as in vivo, mouse. To be noted: 20 Gy IR, single agent intratumorally on day 2, 4 and 7 after IR (100 μL of 100 μM compound 1 or 10 μg cGAMP). The procedure:
Tumor volumes were recorded every other day.

The mark [5] stands for this setting: 32P-cGAMP 5 μM, mouse ENPP1 20 nM, pH 7.5, room temperature, 5 hours, read-out: IC50 values (cGAMP; μM).

The values that follow come from patent publication US20230190927A1, “ENPP1 INHIBITORS AND METHODS OF MODULATING IMMUNE RESPONSE” (Angarus Therapeutics, Inc., priority 2020, published 2023).

Procedure for human CD14+ monocytes: Primary human peripheral blood mononucleocyte cells (PBMCs) were isolated by subjecting enriched buffy coat from whole blood to a Percoll density gradient. CD14^+ monocytes were isolated using CD14^+ MicroBeads (Miltenyi). CD14^+ monocytes were cultured in RMPI supplemented with 2% human serum and 100 U/mL penicillin-streptomycin. […] 24-26 hours following supernatant transfer, total RNA was extracted using Trizol (Thermo Fisher Scientific) and reverse transcribed with Maxima H Minus Reverse Transcriptase (Thermo Fisher Scientific). Real-time RT-PCR was performed in duplicate with AccuPower 2X Greenstar qPCR Master Mix (Bioneer) on a 7900HT Fast Real-Time PCR System (Applied Biosystems). Data were normalized to CD14 expression for each sample. Fold induction was calculated using ΔΔCt.
Supernatant from these cells was transferred to primary CD14^+ human PBMCs. IFNB1 mRNA levels were normalized to CD14 and the fold induction was calculated relative to untreated CD14^+ cells.

Regarding `COc1cc2ncnc(N3CCC(CCP(=O)(O)O)CC3)c2cc1OC` [Compound 1], the “tumor associated CD11c+ population” value in the assay with 4T1 tumor [1] (tumors pretreated with 20 Gy IR) was “increased the tumor associated CD11c^+ population”. Also, the tumor-associated leukocyte compositions entry with 4T1 tumor [1] (without IR, vs PBS control) is given as “did not change tumor-associated leukocyte compositions compared to the PBS control”. Moreover, the “extracellular cGAMP levels” value with human CD14+ monocytes (293T cGAS ENPP1low cells with transient overexpression of ENPP1) is “rescued extracellular cGAMP levels”. Moreover, the “CD14+ IFNB1 expression” value in the assay on human CD14+ monocytes (supernatant of ENPP1-overexpressing 293T cGAS ENPP1low cells transferred to CD14+ monocytes) is given as “induced CD14^+ IFNB1 expression”.
For the molecule `O=P(O)(O)CCC1CCN(c2ncnc3cc(O)ccc23)CC1` [Compound 5], the IC50 in assay [2] was 0.05 to 0.5 µM.
The same measure, in the same setting: for `COc1cc(OC)c2ncnc(N3CCC(CCP(=O)(O)O)CC3)c2c1` [Compound 7] the value was 0.05 to 0.5 µM.
For the molecule `COc1ccc2c(N3CCC(CCP(=O)(O)O)CC3)ncnc2c1` [Compound 10], the IC50 in assay [3] (setting [5]) was 0.05 to 0.5 µM; in assay [2], less than 0.005 µM.
In the case of `CC(C)Oc1ccc2c(N3CCC(CCP(=O)(O)O)CC3)ncnc2c1` [Compound 11], the half-inhibitory concentration (IC50) in assay [2] is greater than 5 µM.
`COc1ccc2c(N3CCC(CCP(=O)(O)O)CC3)nc(C)nc2c1` [Compound 12]: the results for the IC50 in assay [3] (setting [5]) and in assay [2] were 0.05 to 0.5 µM and 0.005 to 0.05 µM, respectively.
Regarding `O=P(O)(O)CCC1CCN(c2ncnc3cc4c(cc23)OCCO4)CC1` [Compound 13], the IC50 in assay [2] lay within 0.5 to 5 µM.
The same measure, in the same setting: the figure for `COc1ccc(OC)c2c(N3CCC(CCP(=O)(O)O)CC3)ncnc12` [Compound 16] is 0.5 to 5 µM.
For `COc1ccc2c(N3CCC(CCP(=O)(O)O)CC3)nc(/C=C/c3cccnc3)nc2c1` [Compound 18], the IC50 in assay [3] (setting [5]) was 0.05 to 0.5 µM; in assay [2] it was less than 0.005 µM.
For the molecule `COc1ccc2ncnc(N3CCC(CCP(=O)(O)O)CC3)c2c1` [Compound 19], in assay [2], the IC50 lay within 0.005 to 0.05 µM.
Same read-out and setting: for `COc1ccc2c(N3CCC(CCP(=O)(O)O)CC3)ncnc2c1OC` [Compound 22] the value was 0.05 to 0.5 µM.
Same read-out and setting: the figure for `O=P(O)(O)CCC1CCN(c2ncnc3ccc(O)cc23)CC1` [Compound 23] is 0.5 to 5 µM; for `COc1ccc2c(N3CCC(CCP(=O)(O)O)CC3)ncnc2c1OC` [Compound 25] it is 0.005 to 0.05 µM.
In the case of `Nc1ccc2c(N3CCC(CCP(=O)(O)O)CC3)ncnc2c1` [Compound 30], the half-maximal inhibitory concentration (IC50) in assay [2] is 0.05 to 0.5 µM.
`COc1cc2ccnc(N3CCC(CCP(=O)(O)O)CC3)c2cc1OC` [Compound 38]: the IC50 in assay [2] was 0.05 to 0.5 µM.
Same read-out and setting: for `COc1ccc2c(N3CCN(CCP(=O)(O)O)CC3)ncnc2c1` [Compound 42] the value was greater than 5 µM; for `COc1cc2ncnc(N3CCC(COP(=O)(O)O)CC3)c2cc1OC` [Compound 60], 0.05 to 0.5 µM; for `COc1cc2ncnc(N3CCC(CC(=O)NO)CC3)c2cc1OC` [Compound 61], 0.5 to 5 µM.
As to `COc1cc2ncnc(N3CCC(COP(O)(O)=S)CC3)c2cc1OC` [Compound 67], the IC50 in assay [2] lay within 0.005 to 0.05 µM.
Same read-out and setting: for `O=P(O)(O)CCC1CCN(c2ncnc3nc[nH]c23)CC1` [Compound 68] the value was greater than 5 µM; for `O=P(O)(O)CCC1CCN(c2ncnc3cccc(F)c23)CC1` [Compound 70], 0.5 to 5 µM.
Same read-out and setting: the figure for `COc1cc2nccc(N3CCC(CCP(=O)(O)O)CC3)c2cc1OC` [Compound 71] is 0.05 to 0.5 µM; for `CNC(=O)NCC1CCN(c2ncnc3cc(OC)c(OC)cc23)CC1` [Compound 73] it is greater than 5 µM.
With `COc1cc2ncnc(N3CCN(C(=O)CP(=O)(O)O)CC3)c2cc1OC` [Compound 75], the figures for the IC50 in assay [3] (setting [5]) and in assay [2] were 0.5 to 5 µM and 0.05 to 0.5 µM, respectively.
`COc1cccc2c(N3CCC(CCP(=O)(O)O)CC3)ncnc12` [Compound 76]: the IC50 is 0.005 to 0.05 µM in assay [3] and less than 0.005 µM in assay [2].
Consider `COc1cc2ncnc([C@H]3CC[C@@H](CCP(=O)(O)O)CC3)c2cc1OC` [Compound 81], for which the IC50 in assay [2] is 0.005 to 0.05 µM.
Still for that read-out and setting: for `COc1cc2ncnc([C@H]3CC[C@H](CCP(=O)(O)O)CC3)c2cc1OC` [Compound 82] the value was 0.005 to 0.05 µM; for `COc1cc2ncnc(N3CCC(CCP(O)(O)=S)CC3)c2cc1OC` [Compound 83], 0.05 to 0.5 µM; for `O=P(O)(O)CCC1CCN(c2ncnc3cc(Cl)ccc23)CC1` [Compound 84], 0.05 to 0.5 µM.
On the same count and under the same terms, for `COc1cccc2c(N3CCC(COP(=O)(O)O)CC3)ncnc12` [Compound 86] the value was less than 0.005 µM; for `COc1cc2ncnc(N3CCC(CCB(O)O)CC3)c2cc1OC` [Compound 87], 0.05 to 0.5 µM; for `COc1cc2ncnc(N3CCC(CP(=O)(O)O)CC3)c2cc1OC` [Compound 88], 0.05 to 0.5 µM.
The same measure, in the same setting: for `COc1cccc2c(N3CCC(CCP(O)(O)=S)CC3)ncnc12` [Compound 92] the value was less than 0.005 µM; for `Cc1nccn1-c1cc(N2CCC(CCP(=O)(O)O)CC2)ncn1` [Compound 93], 0.05 to 0.5 µM.
As to `Cc1cnc(C)n1-c1cc(N2CCN(CCP(=O)(O)O)CC2)ncn1` [Compound 103], in assay [2], the IC50 fell in the range of 0.05 to 0.5 µM.
In the case of `Nc1nc2c(ncn2[C@@H]2O[C@@H]3COP(=O)(O)O[C@H]4[C@@H](O)[C@H](n5cnc6c(N)ncnc65)O[C@@H]4COP(=O)(O)O[C@@H]2[C@@H]3O)c(=O)[nH]1` [cGAMP, cyclic guanosine monophosphate-adenosine monophosphate], the “tumor shrinkage effect over IR treatment” value in the assay on 4T1 tumor [4] is “had no effect over IR treatment”.
